Reference: patent US20040138285A1, “Chondrogenesis promoters” (priority 2001, published 2004)

Experiments:
[1] = system: rat articular chondrocytes; experiment: Cartilage matrix production promoting effect of compound A and PD98059 (alcian blue staining), Example 2; format: cell-based; settings: one week; for ratio of alcian blue positive cells (photomicrograph after alcian blue staining): compound A 2×10^−6 mol/L or PD98059 5×10^−5 mol/L alone, vs vehicle control (FIG. 7); for production of the cartilage matrix (alcian blue staining intensity, absorption at 595 nm): each agent alone (compound A 2×10^−6 mol/L; PD98059 5×10^−5 mol/L), vs vehicle control, p<0.05 (FIG. 8)
Experimental: A 5-week-old male SD rat (Charles River Japan Corp.) was euthanized, and thereafter the femur was removed therefrom, and the articular cartilage layer was stripped off from the knee joint surface of the femur with a scalpel. The articular cartilage obtained was treated with 0.15% trypsin (DIFCO Lab.)/0.05% EDTA (Nacalai Tesque, Inc.) at 37° C. for one hour, and thereafter the matrix was decomposed while being agitated at 37° C. in 0.15% collagenase (WORTHINGTON Corp.) for three hours, thereby obtaining a cell suspension. The cartilage cells obtained were seeded at the cell density of 20000 per well in a 24-well culturing plate (Falcon Corp.) coated with type I collagen (Nitta Gelatin Inc.) and were cultured in a Dulbecco's modified Eagle medium (Gibco) containing 10% fetal bovine serum (REHATUIN) and antibiotic-antimycotic (Gibco) (Calcif. Tissue Int. 19: 179-187, 1975). After achievement of the confluent state of cells, 50 μg/mL ascorbic acid (Wako Pure Chemical Industries) was added to the medium, and either or both of 2×10^−6 mol/L compound A and 2×10^−6 to 5×10^−5 mol/L compound with MEK1 inhibitory activity PD98059 (New England Biolab) were further added thereto, followed by culture for one week. 0.12% DMSO (JUNSEI CHEMICAL CO., LTD) was used as a solvent vehicle control. The medium was replaced every two to three days and the above agents were added every replacement.
After completion of the culture, the cell layer was fixed at room temperature in 4% paraformaldehyde solution (Wako Pure Chemical Industries) for two hours and then washed with distilled water and 5% acetic acid of pH 1.0, and thereafter the cartilage matrix was stained at room temperature with alcian blue of pH 1.0 (Wako Pure Chemical Industries) for two hours. The cell layer was washed with 5% acetic acid and distilled water and then dried, 6 mol/L guanidine hydrochloride (Nacalai Tesque, Inc.) was added to the cell layer to extract the dye therefrom, and absorption was measured at 595 nm with the Microplate reader (BioRad).

[2] = system: rat articular chondrocytes; experiment: Cartilage matrix production promoting effect of compound A and U0126 (alcian blue staining, phase contrast morphology), Example 1; format: cell-based
Experimental: A 5-week-old male SD rat (Charles River Japan Corp.) was euthanized, and thereafter the femur was removed therefrom, and the articular cartilage layer was stripped off from the knee joint surface of the femur with a scalpel. The articular cartilage obtained was treated with 0.15% trypsin (DIFCO Lab.)/0.05% EDTA (KANTO KAGAKU CORP.) at 37° C. for one hour, and thereafter the matrix was decomposed while being agitated at 37° C. in 0.15% collagenase (WORTHINGTON Corp.) for three hours, thereby obtaining a cell suspension. […] 0.12% DMSO (Wako Pure Chemical Industries) was used as a solvent vehicle control. The medium was replaced every two to three days and the above agents were added every replacement.
After completion of the culture, the cell layer was fixed at room temperature in 4% paraformaldehyde solution (Wako Pure Chemical Industries) for two hours and then washed with distilled water and 5% acetic acid of pH 1.0, and thereafter the cartilage matrix was stained at room temperature with alcian blue of pH 1.0 (Wako Pure Chemical Industries) for two hours. The cell layer was washed with 5% acetic acid and distilled water and then dried, 6 mol/L guanidine hydrochloride (Nacalai Tesque, Inc.) was added to the cell layer to extract the dye therefrom, and the absorption was measured at 630 nm with a Microplate reader (BioRad).

SMILES | ratio of alcian blue positive cells (photomicrograph after alcian blue staining) [1] | production of the cartilage matrix (alcian blue staining intensity, absorption at 595 nm) [1] | production of the matrix and morphology of chondrocytes (phase contrast photomicrograph) ([2]; compound A 2×10^−6 mol/L alone, cultured one week, vs vehicle control 0.12% DMSO (FIG. 2)) | production of the cartilage matrix (alcian blue staining intensity, absorption at 630 nm) ([2]; each agent alone (compound A 5×10^−7 to 2×10^−6 mol/L; U0126 1×10^−7 to 1×10^−5 mol/L), one week, vs vehicle control, p<0.05 (FIGS. 5 and 6))
COc1cccc(-c2cc(=O)c3ccccc3o2)c1N [PD98059, reference compound] | the ratio of alcian blue positive cells increased | significantly promoted the production of the cartilage matrix |  | 
CCOC(CN1C(=O)[C@](CC(=O)Nc2ccc(C)cc2)(NC(=O)Nc2ccc(C)cc2)c2ccccc21)OCC [compound A] | the ratio of alcian blue positive cells increased | significantly promoted the production of the cartilage matrix | production of the matrix was enhanced | significantly promoted the production of the cartilage matrix
